Patent US20130184222A1, “[…] ACTIVE COMPOSITIONS AND THEIR METHODS OF USE” (AGIOS PHARMACEUTICALS, INC, priority 2010, published 2013)
Like-named read-outs stand apart in the source and are kept apart here.

Target: IDH1 R132H (Homo sapiens, UniProt O75874, R132H)
Experiment: In vitro assay for IDH1 R132H inhibitors (NADPH/aKG, resazurin detection)
Type: biochemical
Settings: 0.2 μg/ml IDH1 R132H, 50 minutes at room temperature
Protocol: Assays were conducted in a volume of 76 μl assay buffer (150 mM NaCl, 10 mM MgCl2, 20 mM Tris pH 7.5, 0.03% bovine serum albumin) as follows in a standard 384-well plate: To 25 ul of substrate mix (8 uM NADPH, 2 mM aKG), 1 μl of test compound was added in DMSO. The plate was centrifuged briefly, and then 25 μl of enzyme mix was added (0.2 μg/ml IDH1 R132H) followed by a brief centrifugation and shake at 100 RPM. The reaction was incubated for 50 minutes at room temperature, then 25 μl of detection mix (30 μM resazurin, […]) was added and the mixture further incubated for 5 minutes at room temperature. The conversion of resazurin to resorufin was detected by fluorescent spectroscopy at Ex544 Em590 c/o 590.
The compounds of Formula I set forth in Table 1 and the compounds set forth in Table 2 were tested in this assay and the results set forth below in Table 4A and 4B.

[1] = Table 4A, read-out: IC50 (uM), IDH1 R132H Inhibition
[2] = Table 4B, read-out: IC50, IDH1 R132H Inhibition

IDH1 R132H, sequence (O75874 whole entry R132H): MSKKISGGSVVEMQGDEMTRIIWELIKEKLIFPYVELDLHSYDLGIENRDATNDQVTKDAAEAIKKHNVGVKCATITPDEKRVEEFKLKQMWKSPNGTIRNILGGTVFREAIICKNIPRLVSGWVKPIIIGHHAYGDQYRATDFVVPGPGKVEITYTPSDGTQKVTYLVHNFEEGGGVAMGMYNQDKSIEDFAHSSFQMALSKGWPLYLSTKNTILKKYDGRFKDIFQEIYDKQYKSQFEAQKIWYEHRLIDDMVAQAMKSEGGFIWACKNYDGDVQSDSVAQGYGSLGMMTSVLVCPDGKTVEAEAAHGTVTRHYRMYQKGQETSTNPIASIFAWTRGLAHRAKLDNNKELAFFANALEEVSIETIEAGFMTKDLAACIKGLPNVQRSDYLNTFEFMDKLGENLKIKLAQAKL

| Compound | IC50 [1] [µM] | IC50 [2] [µM] |
| --- | --- | --- |
| O=C(Cc1cccs1)N(c1cccc(F)c1)C1(C(=O)NC2CCCC2)CCCCC1 [Compound 24] | 1 to 10 |  |
| CCC(C(=O)NC1CCCC1)N(C(=O)Cc1cccs1)c1cccc(F)c1 (stereo not drawn) [Compound 18] | ≥ 100 |  |
| COc1cccc(C(C(=O)NC2CCCCC2)N(C(=O)Cc2cccs2)c2cccc(F)c2)c1 (stereo not drawn) [Compound 49] | 0.1 to 1 |  |
| O=C(NC1CCCC1)C(c1ccccc1F)N(C(=O)Cc1cccs1)c1cccc(F)c1 (stereo not drawn) [Compound 43] | 0.1 to 1 |  |
| Cc1ccsc1C(C(=O)NC1CCCCC1)N(C(=O)Cc1cccs1)c1cccc(F)c1 (stereo not drawn) [Compound 51] | 0.1 to 1 |  |
| O=C(NC1CCCCC1)C(c1ccccc1Cl)N(C(=O)c1ccccn1)c1ccccc1F (stereo not drawn) [Compound 57] | 1 to 10 |  |
| Cc1cccc(N(C(=O)Cc2cccs2)C(C(=O)NC2CCCCC2)c2ccccc2C)c1 (stereo not drawn) [Compound 99] | ≤ 0.1 |  |
| O=C(NC1CCCCC1)C(c1ccccc1)N(C(=O)Cc1cccs1)c1cccc(F)c1 (stereo not drawn) [Compound 30] | 0.1 to 1 |  |
| Cc1ccccc1C(C(=O)NC1CCCCC1)N(C(=O)c1ccccn1)c1ccccc1F (stereo not drawn) [Compound 59] | 1 to 10 |  |
| O=C(NC1CCCCC1)C(c1ccccc1F)N(C(=O)c1ccccn1)c1cccc(F)c1 (stereo not drawn) [Compound 33] | 0.1 to 1 |  |
| Cc1ccccc1C(C(=O)NC1CCCCC1)N(C(=O)CNc1cccc(F)c1)c1cccc(F)c1 (stereo not drawn) [Compound 133] |  | 0.1 to 1 |
| Cc1ccccc1NC(=O)C(c1ccccc1C)N(C(=O)Cc1cccs1)c1cccc(F)c1 (stereo not drawn) [Compound 110] |  | 0.1 to 1 |
| O=C(NC1CCCCC1)C(c1ccc(O)cc1)N(C(=O)Cc1cccs1)c1cccc(F)c1 (stereo not drawn) [Compound 92] | 0.1 to 1 |  |
| Cc1ccccc1C(C(=O)NC1CCCC1)N(C(=O)Cc1cccs1)c1cccc(F)c1 (stereo not drawn) [Compound 8] | ≤ 0.1 |  |
| O=C(Cc1cccs1)N(c1cccc(F)c1)C1(C(=O)NC2CCCC2)CCCCCC1 [Compound 74] | 1 to 10 |  |
| O=C(NC1CCCCC1)C(c1ccccn1)N(C(=O)Cc1cccs1)c1cccc(F)c1 (stereo not drawn) [Compound 81] | 1 to 10 |  |
| O=C(NC1CCCCC1)C(c1ccc(Br)o1)N(C(=O)Cc1cccs1)c1cccc(F)c1 (stereo not drawn) [Compound 87] | 0.1 to 1 |  |
| O=C(NC1CCCC1)C(c1cccc([N+](=O)[O-])c1)N(C(=O)Cc1cccs1)c1cccc(F)c1 (stereo not drawn) [Compound 20] | ≥ 100 |  |
| O=C(NC1CCCCC1)C(c1ccccc1Cl)N(C(=O)Cc1cccs1)c1ccccc1F (stereo not drawn) [Compound 35] | 0.1 to 1 |  |
| O=C(NC1CCCCC1)C(c1ccccc1F)N(Cc1cccs1)C(=O)Cc1cccs1 (stereo not drawn) [Compound 38] | 1 to 10 |  |
| Cc1ccccc1C(C(=O)NC1CCCCC1)N(C)C(=O)Cc1cccs1 (stereo not drawn) [Compound 40] | ≥ 100 |  |
| Cc1ccccc1C(C(=O)NC1CCCCC1)N(C(=O)Cc1ccc(OC(=O)N2CCN(C)CC2)cc1)c1cccc(F)c1 (stereo not drawn) [Compound 277] |  | 1 to 10 |
| Cc1ccc(N(C(=O)c2ccccn2)C(C(=O)NC2CCCCC2)c2ccccc2)cc1F (stereo not drawn) [Compound 7] | 1 to 10 |  |
| O=C(NC1CCCCC1)C(C1CCCCC1)N(C(=O)Cc1cccs1)c1cccc(F)c1 (stereo not drawn) [Compound 63] | 1 to 10 |  |

| Compound | IC50 [1] [µM] | IC50 [2] [µM] |
| --- | --- | --- |
| Cc1ccccc1C(C(=O)NC1CCCCC1)N(C(=O)Cc1cccs1)C(C)(C)C (stereo not drawn) [Compound 69] | ≥ 100 |  |
| O=C(NC1CCCCC1)C(c1ccccc1F)N(Cc1cccs1)C(=O)c1ccccn1 (stereo not drawn) [Compound 37] | 10 to 100 |  |
| O=C(NC1CCCC1)C(c1ccccc1)N(C(=O)Cc1cccs1)c1ccccc1F (stereo not drawn) [Compound 48] | 0.1 to 1 |  |
| Cc1ccccc1N(C(=O)Cc1cccs1)C(C(=O)NC1CCCCC1)c1cccc(F)c1 (stereo not drawn) [Compound 13] | 0.1 to 1 |  |
| O=C(NC1CCCCC1)C(c1ccccc1)N(C(=O)Cc1cccs1)c1ccccc1F (stereo not drawn) [Compound 36] | 0.1 to 1 |  |
| COc1ccccc1C(C(=O)NC1CCCC1)N(C(=O)Cc1cccs1)c1cccc(F)c1 (stereo not drawn) [Compound 26] | 0.1 to 1 |  |
| O=C(NC1CCCCC1)C(c1ccccc1C(F)(F)F)N(C(=O)Cc1cccs1)c1cccc(F)c1 (stereo not drawn) [Compound 108] |  | 0.1 to 1 |
| Cc1ccccc1C(C(=O)NC1CCCCC1)N(C(=O)Cc1cccs1)c1ccc(Br)c(Cl)c1 (stereo not drawn) [Compound 73] | 0.1 to 1 |  |
| O=C(NC1CCCCC1)C(c1ccc(F)cc1)N(C(=O)Cc1cccs1)c1cccc(F)c1 (stereo not drawn) [Compound 50] | 0.1 to 1 |  |
| N#Cc1ccc(C(C(=O)NC2CCCC2)N(C(=O)Cc2cccs2)c2cccc(F)c2)cc1 (stereo not drawn) [Compound 25] | ≥ 100 |  |
| O=C(NC1CCCCC1)C(c1ccccc1F)N(C(=O)c1ccccn1)c1ccccc1F (stereo not drawn) [Compound 60] | 0.1 to 1 |  |
| COc1cccc(N(C(=O)Cc2cccs2)C(C(=O)NC2CCCCC2)c2ccccc2C)c1 (stereo not drawn) [Compound 124] |  | 0.1 to 1 |
| O=C(NC1CCCCC1)C(Cc1ccccc1)N(C(=O)Cc1cccs1)c1cccc(F)c1 (stereo not drawn) [Compound 82] | 1 to 10 |  |
| O=C(NC1CCCCC1)C(c1ccccc1Br)N(C(=O)Cc1cccs1)c1cccc(F)c1 (stereo not drawn) [Compound 104] |  | ≤ 0.1 |
| COc1cccc(N(C(=O)Cc2cccs2)C(C(=O)NC2CCCC2)c2ccccc2Cl)c1 (stereo not drawn) [Compound 3] | 0.1 to 1 |  |
| O=C(Cc1cccs1)N(c1cccc(F)c1)C1(C(=O)NC2CCCC2)CCCC1 [Compound 23] | 10 to 100 |  |
| Cc1ccccc1C(C(=O)NC1CCCCC1)N(C(=O)Cc1cccs1)c1cccc(N2CCOCC2)c1 (stereo not drawn) [Compound 123] |  | 0.1 to 1 |
| Cc1cccc(C)c1C(C(=O)NC1CCCCC1)N(C(=O)Cc1cccs1)c1cccc(F)c1 (stereo not drawn) [Compound 130] |  | 0.1 to 1 |
| COc1ccc(C(C(=O)NC2CCCCC2)N(C(=O)Cc2cccs2)c2cccc(F)c2)cc1 (stereo not drawn) [Compound 77] | ≥ 100 |  |
| O=C(NC1CCCCC1)C(c1ccccc1)N(C(=O)c1ccccn1)c1ccccc1F (stereo not drawn) [Compound 58] | 1 to 10 |  |
| CC(C(=O)NCc1ccccc1)(c1cccc(F)c1)N(C(=O)Cc1cccs1)c1ccccc1 (stereo not drawn) [Compound 12] | 10 to 100 |  |
| Cc1ccccc1[C@@H](C(=O)NC1CCCCC1)N(C(=O)Cc1cccs1)c1cccc(F)c1 (single isomer, unassigned) [Compound 54] | ≤ 0.1 |  |
| Cc1ccccc1C(C(=O)NC1CCCCC1)N(C(=O)Cc1cccs1)C1CCCCC1 (stereo not drawn) [Compound 113] |  | 0.1 to 1 |
| O=C(NC1CCCC1)C(c1ccc(C(F)(F)F)cc1)N(C(=O)Cc1cccs1)c1cccc(F)c1 (stereo not drawn) [Compound 27] | ≥ 100 |  |

Results, then the molecule that gave them:

| IC50 [1] [µM] | IC50 [2] [µM] | Compound |
| --- | --- | --- |
|  | 0.1 to 1 | Cc1ccccc1[C@@H](C(=O)NC1CCCCC1)N(C(=O)[C@H]1CCCCN1C(=O)N(C)C)c1cccc(F)c1 [Compound 365] |
|  | ≤ 0.1 | CCOC(=O)N1CCCC[C@H]1C(=O)N(c1cccc(F)c1)[C@H](C(=O)NC1CCCCC1)c1ccccc1C [Compound 348] |
|  | 0.1 to 1 | Cc1ccccc1C(C(=O)NC1CCCCC1)N(C(=O)COc1ccccc1)c1cccc(F)c1 (stereo not drawn) [Compound 136] |
|  | ≤ 0.1 | Cc1ccccc1C(C(=O)NC1CCCCC1)N(C(=O)CNc1ccccc1)c1cccc(F)c1 (stereo not drawn) [Compound 155] |
|  | 0.1 to 1 | Cc1ccccc1C(C(=O)NC1CCCCC1)N(Cc1cccs1)C(=O)CNCc1ccncc1 (stereo not drawn) [Compound 169] |
|  | ≤ 0.1 | COC(=O)N1CCOC[C@H]1C(=O)N(c1cccc(F)c1)[C@H](C(=O)NC1CCCCC1)c1ccccc1C [Compound 385] |
|  | 0.1 to 1 | Cc1ccccc1C(C(=O)NC1CCCCC1)N(C(=O)CN1CCCCC1)c1cccc(F)c1 (stereo not drawn) [Compound 141] |
|  | 0.1 to 1 | O=C(NC1CCCCC1)C(c1cccc(F)c1)N(C(=O)Cc1cccs1)c1cccc(F)c1 (stereo not drawn) [Compound 137] |
|  | 0.1 to 1 | C#CC(=O)N(c1cccc(F)c1)C(C(=O)NC1CCCCC1)c1ccccc1C (stereo not drawn) [Compound 142] |
|  | 1 to 10 | Cc1ccccc1C(C(=O)NC1CCCCC1)N(Cc1cccs1)C(=O)CN1CCCc2ccccc21 (stereo not drawn) [Compound 168] |
|  | 0.1 to 1 | CCOC(=O)N1CCC[C@@H]1C(=O)N(c1cccc(F)c1)[C@H](C(=O)NC1CCCCC1)c1ccccc1C [Compound 360] |
|  | 0.1 to 1 | COC(=O)NCC(=O)N(Cc1cccs1)C(C(=O)NC1CCCCC1)c1ccccc1C (stereo not drawn) [Compound 372] |
|  | 0.1 to 1 | Cc1ccccc1[C@@H](C(=O)NC1CCCCC1)N(C(=O)[C@@H]1CCCN1S(C)(=O)=O)c1cccc(F)c1 [Compound 362] |
|  | 0.1 to 1 | O=C(NC1CCCCC1)C(c1ccccc1Cl)N(C(=O)c1cc2ccccc2[nH]1)c1cccc(F)c1 (stereo not drawn) [Compound 382] |
|  | 0.1 to 1 | Cc1ccccc1C(C(=O)NC1CCCCC1)N(C(=O)Cn1ccnn1)c1cccc(F)c1 (stereo not drawn) [Compound 329] |
|  | 0.1 to 1 | Cc1ccccc1C(C(=O)NC1CCCCC1)N(C(=O)Cc1cccs1)c1ccccc1Cl (stereo not drawn) [Compound 147] |
|  | 0.1 to 1 | Cc1ccccc1C(C(=O)NC1CCCCC1)N(C(=O)Cc1cccs1)c1ccc(F)cc1 (stereo not drawn) [Compound 145] |
|  | 0.1 to 1 | Cc1ccccc1C(C(=O)NC1CCOCC1)N(C(=O)Cc1cccs1)c1cccc(F)c1 (stereo not drawn) [Compound 159] |
|  | 0.1 to 1 | Cc1ccccc1C(C(=O)NC1CCCCC1)N(C(=O)Cn1nnc2ccccc21)c1cccc(F)c1 (stereo not drawn) [Compound 151] |
|  | ≤ 0.1 | Cc1ccccc1C(C(=O)NC1CCCCC1)N(C(=O)Cc1ccsc1)c1cccc(F)c1 (stereo not drawn) [Compound 150] |
|  | 0.1 to 1 | CNC(=O)N1CCCC[C@@H]1C(=O)N(c1cccc(F)c1)[C@H](C(=O)NC1CCCCC1)c1ccccc1C [Compound 364] |
|  | ≤ 0.1 | O=C(NC1CCCCC1)C(c1ccccc1Cl)N(C(=O)Cn1cnc(Cl)c1Cl)c1cccc(F)c1 (stereo not drawn) [Compound 383] |
|  | 0.1 to 1 | Cc1ccccc1C(C(=O)NC1CCCCC1)N(C(=O)CN1CCc2ccccc21)c1cccc(F)c1 (stereo not drawn) [Compound 153] |
|  | 0.1 to 1 | Cc1ccccc1C(C(=O)NC1CCCCC1)N(C(=O)Cc1cccs1)c1ccc(Cl)cc1 (stereo not drawn) [Compound 148] |
